Target: T1, COL3 (Mus musculus, UniProt P08121)
T1 construct: from tissue; host or cells: infarcted left-ventricular myocardium of female CD1 mice, in vivo
T1 sequence (P08121 155-1219 limits assumed): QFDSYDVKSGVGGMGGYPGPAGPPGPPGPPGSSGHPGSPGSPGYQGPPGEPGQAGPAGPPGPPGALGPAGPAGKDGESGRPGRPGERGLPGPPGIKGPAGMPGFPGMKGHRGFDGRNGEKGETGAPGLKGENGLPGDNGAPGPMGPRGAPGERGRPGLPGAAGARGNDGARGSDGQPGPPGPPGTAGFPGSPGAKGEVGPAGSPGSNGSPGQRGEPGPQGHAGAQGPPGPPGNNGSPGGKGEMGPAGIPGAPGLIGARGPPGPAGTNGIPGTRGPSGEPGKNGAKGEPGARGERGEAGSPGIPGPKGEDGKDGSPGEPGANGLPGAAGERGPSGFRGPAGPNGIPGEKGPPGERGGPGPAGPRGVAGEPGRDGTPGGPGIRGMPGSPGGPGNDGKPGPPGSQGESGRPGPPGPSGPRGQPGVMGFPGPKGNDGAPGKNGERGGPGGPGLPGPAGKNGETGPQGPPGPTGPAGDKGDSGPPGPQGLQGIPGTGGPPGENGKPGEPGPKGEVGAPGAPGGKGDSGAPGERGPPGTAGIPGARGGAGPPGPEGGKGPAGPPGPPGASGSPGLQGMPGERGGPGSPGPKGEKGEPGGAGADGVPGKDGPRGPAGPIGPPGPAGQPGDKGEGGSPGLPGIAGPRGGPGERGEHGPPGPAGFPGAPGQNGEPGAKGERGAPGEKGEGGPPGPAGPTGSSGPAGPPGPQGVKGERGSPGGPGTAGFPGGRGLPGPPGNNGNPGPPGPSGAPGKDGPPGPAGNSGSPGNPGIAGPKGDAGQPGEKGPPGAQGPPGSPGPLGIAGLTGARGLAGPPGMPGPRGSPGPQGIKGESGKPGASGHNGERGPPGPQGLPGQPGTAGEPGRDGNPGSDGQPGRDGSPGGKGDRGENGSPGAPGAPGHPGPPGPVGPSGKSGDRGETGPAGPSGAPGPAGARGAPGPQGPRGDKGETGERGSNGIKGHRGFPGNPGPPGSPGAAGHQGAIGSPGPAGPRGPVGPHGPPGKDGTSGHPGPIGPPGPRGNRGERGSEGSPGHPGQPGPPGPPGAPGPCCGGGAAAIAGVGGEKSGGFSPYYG
Assay: In vivo MRI of the aortic wall in a murine model of vascular remodelling
Conditions: ApoE−/− mice after aortic injury and 12 weeks high-fat diet, i.v. 0.2 mmol/kg, LGE MRI at 3 T up to 2 h post-injection
From the text: Male ApoE^−/− mice were bred in-house and underwent surgery at 8–10 weeks of age (n = 6). Mice were anesthetised with 4% isoflurane mixed with 1% medical oxygen and anaesthesia was maintained at 2% during the surgery as previously reported. Briefly, mice underwent a laparotomy to expose the abdominal aorta, renal and iliac arteries. Two ligatures were inserted around the aorta (surgical silk, size 4–0, Aragó, Zaragoza, Spain), the first below the renal arteries and the second above the iliac bifurcation. A 30 G needle was introduced into the abdominal aorta at the level of the iliac bifurcation, via an aortic puncture. 1 mL of saline was infused into the aorta in three boluses. Finally, the needle was removed, and the puncture was repaired. The muscle and skin incisions were sutured (5-0 Vicryl, Ethicon Inc, Somerville, NJ), and the animals were allowed to recover. Mice were switched to a high-fat diet (HFD) containing 21% fat from lard and 0.15% (wt/wt) cholesterol (Special Diets Services, Witham, United Kingdom), on day 2 post-surgery for 12 weeks prior to the imaging experiments.
Anaesthesia was induced with 4% and maintained with 1–2% isoflurane during the MRI experiments. Mice (n = 3 per group) were placed supine on a single-loop surface coil (diameter = 47 mm) and the abdominal aorta was imaged up to 2 h post-injection of the monomeric (i.v. 0.2 mmol/kg, 0.2 mmol/kg Gd), the next day with the corresponding tetrameric collagen-binding probe (i.v 0.2 mmol/kg, 0.8 mmol/kg Gd) and the 3rd day using the scrambled probes (n = 2–3 per probe; i.v. 0.2 mmol/kg). This timeline ensures complete washout of one probe from the tissue before the administration of another probe. […]

Substance	signal enhancement of the remodelled aortic wall (in words)
Ac-C-TEFPLRMRDWLKN [[Gd-DOTAMA]4-CBP2, tetrameric probe: tri-lysine scaffold bearing four Gd-DOTAMA units conjugated at the N-terminus of CBP2]	stronger enhancement at 60 min compared with corresponding monomeric probes
Ac-C-RDKKVAEQS [[Gd-DOTAMA]4-SccCBP1, scrambled tetrameric Gd probe (Ac-C-…), negative control]	No signal enhancement

— paper PMC11408249, “Non-invasive in vivo imaging of changes in Collagen III turnover in myocardial fibrosis” (npj Imaging, 2024)
